Source: US9750934B2, “Treating bacteria with electric fields” (Novocure Limited, priority 2000, dated 2017)
Values joined by “and” are separate entries in the source; they are usually repeats but may differ in a detail not shown here. Equal entries are not always repeated.

Legend:
[1] = test system: P. aeruginosa strain PAO1; assay: P. aeruginosa pulmonary infection in neutropenic ICR mice, ceftazidime alone or combined with electric fields / sham heat; type: in vivo, Pseudomonas aeruginosa; details: for Average lungs weight, weight in mg (±STDEV): end of 48 hour treatment
Experimental: In vivo experiments were also performed on Pseudomonas aeruginosa strain PAO1 in lungs of infected mice. For this example, bacteria were grown in LB media (1.0% Bacto tryptone, 0.5% Yeast extract, 1.0% NaCl (Frutarom, Haifa, Israel). Broth cultures of freshly plated bacteria were grown in 250 ml of liquid medium at 37° C. in an orbital shaker at 220 RPM (New Brunswick Scientific, N.J., USA) up to logarithmic phase, centrifuged and resuspended in saline containing 15% glycerol. Stocks were divided into aliquots of 50 μl each containing 2.17×10^7 Colony Forming Units (CFU)/ml and kept at −70° C. until use.
Experiments were conducted on 7- to 8-week-old (body weight 26-35 g) ICR female mice obtained from Harlan laboratories (Israel). Mice were housed under standard conditions of light and temperature, and were fed standard laboratory chow and water ad libitum. Electric fields were generated by 2 pairs of parallel metal electrodes, 15 mm-long; 3 mm-high. The front of the electrodes was completely insulated from the medium by a ceramic [(lead magnesium niobate-lead titanate (PMN-PT) (EDO, New York, N.Y.)] having a very high dielectric constant (∈>5000) such that their capacitance was about 10 nF each. The back of the electrodes was insulated by a 2.5 mm thick layer of 353ND medical grade epoxy (Epoxy Technology, Billerica, Mass., USA). Each electrode contained a thermistor placed within the epoxy directly on top of the ceramic in order to allow for constant monitoring of the electrodes' temperature.
Two control groups were set in each experiment: sham heat control, and non treated control (referred to as “Control”). Control electrodes of identical size and shape to the electric fields electrodes, were placed on mice of the two control groups. The Sham heat electrodes produced equal temperature changes to those produced by the field electrodes by means of a heating resistor incorporated within them, and the sham heat electrodes were placed in the same positions as the real electrodes. Except for the differences in the electrodes, the control mice and the sham heat treated mice were held in conditions identical to those of the electric fields treated mice.
Mice were rendered neutropenic (neutrophil counts, <100/mm^3), as described in Andes and Craig (1998), by two intraperitoneal injections of cyclophosphamide; four days before infection (150 mg/kg of body weight) and an additional injection one day before infection (100 mg/kg of body weight). The pulmonary infection model of Takeda et al., (2006) was used with minor modifications: Anesthetized ICR mice were challenged intra-nasally with 20 μL of saline containing various concentrations (10^4-10^7 CFU/ml) of P. aeruginosa strain PAO1. On the day of infection, immediately before use, frozen bacterial cultures were thawed and diluted in saline to the desired concentration. Anesthetized mice were challenged intra-nasally with the bacterial suspension. Mice were sacrificed at 0, 3, 6, 9, 24, and 48 hours after infection in order to determine CFU counts in their lungs. After skin disinfection with 70% alcohol, lungs from sacrificed mice were removed aseptically, photographed, weighted and their CFU content was determined.
Application of electric fields to the mouse torso was carried out as follows: 4 days before infection, the torso of anesthetized mice was shaved with electrical clippers and depilated using cold wax. Electric fields treatment was applied through four insulated electrodes placed around the mouse torso so as to generate fields of two perpendicular directions. Mice were placed inside the IVC cages and the electrodes were connected to the connection box. Application of electric fields began 3 hours after infection and was maintained for 48 h with two brief stops daily for monitoring the physical condition of the mice. After 48 h of treatment, the mice were sacrificed and bacterial numbers in lung were determined. […]

S. aureus [2] = assay: MIC of antibiotic by serial twofold dilutions (NCCLS guidelines); type: cell-based, Staphylococcus aureus strain SH1000; details: Staphylococcus aureus; chloramphenicol alone; lowest concentration that completely inhibited growth; read-out: MIC against S. aureus
Experimental: Experiments were also performed on two different types of bacteria—Pseudomonas aeruginosa strain PAO1 and Staphylococcus aureus strain SH1000. All strains were grown in LB media (1.0% Bacto tryptone, 0.5% Yeast extract, 1% NaCl). Broth cultures of freshly plated bacteria strains were grown in 3 ml of liquid medium at 37° C. for 15 hours in an orbital shaker (220 RPM) and diluted in fresh LB broth to a predetermined absorbance at 595 nm which yielded the desired CFU per ml.
The combined effect of the electric fields and antibiotics was also tested. Chloramphenicol was obtained as powder and dissolved in EtOH (99%, Frutarom). All the stock solutions were filter sterilized and held at −20° C. until use. Serial twofold dilutions of each antibiotic agent were prepared following NCCLS guidelines. […] The MIC of electric fields was defined as the lowest intensity that inhibits growth by 80% or more compared with control, as determined using the microplate reader.

S. aureus [3] = assay: Checkerboard test of the combined effect of electric fields and chloramphenicol on growth of S. aureus; type: cell-based, Staphylococcus aureus strain SH1000
Experimental: At the end of treatment, the cultures were stirred several times by up and down pipetting. Four aliquots of 250 μl were dispensed into a 96 MicroWells plate (Nunclon™ Δ, Nunc, Denmark) and the OD was determined spectrophotometrically with a microplate reader (Infinite 200, Tecan, Austria) at 750 nm. The optical densities (ODs) of the blanks, which consisted of uninoculated LB, were subtracted from the ODs of the inoculated plates. The percentage of growth for each well was calculated by dividing the OD of the wells by that of the control: (OD750mm of treated wells/OD750nm of the control well)×100.
Drug interactions with the electric fields were assessed according to the checkerboard method, with the following modifications: S. aureus inocula were diluted in LB medium containing the antibiotic to final concentration of 0.5 to 1.0×10^5 CFU/ml. The final concentrations of the chloramphenicol ranged from 0.125 to 16 μg/ml. Petri dishes containing the electric fields chamber were filled with 7 ml of the diluted cultures, and placed inside a pre cooled incubator. Fields were applied for 6 hours with the field direction alternating every 300 ms and the field intensities were varied by changing the incubator ambient temperature. Thus, lower ambient temperatures allowed for higher field intensities while maintaining the proper culture temperature of 37° C. Control plates containing the same electric fields chambers were placed in a pre-warmed incubator set at 37° C. At the end of the treatment, the cultures were stirred by pipetting the plate content up and down. Quadruplicates of 250 μl each were transferred to a 96 MicroWells plate (Nunc) and the OD was determined using Tecan microplate reader. Cultures were subjected to serial 10-fold dilution (up to 1/10,000) by adding 20 μl of sample to 180 μl of saline solution (0.85% NaCl), from which 80 μl aliquots were plated on LB agar plates (1.5% agar, 1.0% Bacto tryptone, 1% NaCl, 0.5% Yeast extract). CFU counts were performed after overnight incubation at 37° C.
To evaluate the effect of the combinations, the fractional inhibitory concentration (FIC) was calculated for the electric fields and for each antibiotic. The following formulas were used to calculate the FIC index: FIC of electric fields=MIC of electric fields in combination/MIC of electric fields alone, FIC of drug B=MIC of drug B in combination/MIC of drug B alone, and FIC index=FIC of electric fields+FIC of drug B. Synergy was defined as an FIC index of ≦0.5. Indifference was defined as an FIC index of >0.5 but of ≦4. Antagonism was defined as an FIC index of >4.

For CC(C)(O/N=C(\C(=O)N[C@@H]1C(=O)N2C(C(=O)[O-])=C(C[n+]3ccccc3)CS[C@H]12)c1csc(N)n1)C(=O)O [ceftazidime, Ceftazidime], which “reduction in the lung CFU content compared to the antibiotic-only treated control” value ([1]; 48 h combined treatment of electric fields and ceftazidime) is on record?
Its value is 1.5 log.

What about the “Log CFU (T48) ± STDEV, number of bacteria in the lungs of infected mice” value (from here on “Log CFU (T48) ± STDEV, number”) ([1]; ceftazidime 5 mg/kg i.p. twice daily + electric fields, 48 h) of the same compound?
The value was 5.0 ± 1.7 Log CFU.

And the “Log CFU (T48) ± STDEV, number” value ([1]; ceftazidime 5 mg/kg i.p. twice daily + sham heat, 48 h)?
Its value is 6.0 ± 2.3 Log CFU.

What about the “Log CFU (T48) ± STDEV, number” value ([1]; ceftazidime 5 mg/kg i.p. twice daily alone (control of the with-ceftazidime groups), 48 h) of the same compound?
Its value is 6.5 ± 2.5 Log CFU.

What about the “growth reduction compared to the non treated lungs” value ([1]; ceftazidime 10 mg/kg BW/day alone) of the same compound?
Its value is ~2 logs.

And the “log CFU/lung (T48/T0) (±STDEV), P. aeruginosa growth in mice lungs” value ([1]; ceftazidime + electric fields, 48 h)?
Its value is 0.4 log CFU/lung and 0.4 ± 1.7 log CFU/lung.

What about the “Average lungs weight, weight in mg (±STDEV)” value (from here on “Average lungs weight, weight”) ([1]; ceftazidime + electric fields) of the same compound?
The value was 244 ± 31 mg.

What about the “log CFU/lung (T48/T0) (±STDEV), P. aeruginosa growth in mice lungs” value ([1]; ceftazidime + sham heat, 48 h) of the same compound?
The value was 1.3 ± 2.2 log CFU/lung.

And the “Average lungs weight, weight” value ([1]; ceftazidime + sham heat)?
The value was 275 ± 60 mg.

What about the “log CFU/lung (T48/T0) (±STDEV), P. aeruginosa growth in mice lungs” value ([1]; ceftazidime alone (control), 10 mg/kg BW/day, 48 h, 10 mg/kg/day) of the same compound?
Its value is 1.9 log CFU/lung and 1.9 ± 2.5 log CFU/lung.

What about the “Average lungs weight, weight” value ([1]; ceftazidime alone (control)) of the same compound?
Its value is 310 ± 77 mg.

What about the “lung CFU count reduction compared to the control” value ([1]; combined treatment of sham heat and ceftazidime, 48 h) of the same compound?
Its value is “did not result in a significant count reduction”.

With O=C(N[C@H](CO)[C@H](O)c1ccc([N+](=O)[O-])cc1)C(Cl)Cl [chloramphenicol, Chloramphenicol] as the compound, how does the MIC (S. aureus [2]) read?
The MIC was 4 µg/mL.

And the “combined effect of electric fields and chloramphenicol” value (S. aureus [3]; S. aureus, 10 MHz fields, 6 hours)?
Its value is “additive effect”.

And the “growth of S. aureus relative to control” value (S. aureus [3]; chloramphenicol 0.25 μg/ml, 0 V/cm, 6 hours)?
Its value is 66%.

And the “growth of S. aureus relative to control” value (S. aureus [3]; chloramphenicol 0.25 μg/ml, 0.5-2.0 V/cm 10 MHz fields, 6 hours)?
Its value is 39%.

What about the “growth of S. aureus relative to control” value (S. aureus [3]; chloramphenicol 0.25 μg/ml, 2.0-2.5 V/cm 10 MHz fields, 6 hours) of the same compound?
Its value is 51%.

And the “growth of S. aureus relative to control” value (S. aureus [3]; chloramphenicol 0.25 μg/ml, 3.5-4.5 V/cm 10 MHz fields, 6 hours)?
The value was 13%.

And the “growth of S. aureus relative to control” value (S. aureus [3]; chloramphenicol 0.5 μg/ml, 0 V/cm, 6 hours)?
Its value is 45%.

And the “growth of S. aureus relative to control” value (S. aureus [3]; chloramphenicol 0.5 μg/ml, 0.5-2.0 V/cm 10 MHz fields, 6 hours)?
The value was 16%.

And the “growth of S. aureus relative to control” value (S. aureus [3]; chloramphenicol 0.5 μg/ml, 2.0-2.5 V/cm 10 MHz fields, 6 hours)?
Its value is 20%.

What about the “growth of S. aureus relative to control” value (S. aureus [3]; chloramphenicol 0.5 μg/ml, 3.5-4.5 V/cm 10 MHz fields, 6 hours) of the same compound?
The value was 21%.

And the “growth of S. aureus relative to control” value (S. aureus [3]; chloramphenicol 1 μg/ml, 0 V/cm, 6 hours)?
Its value is 30%.

And the “growth of S. aureus relative to control” value (S. aureus [3]; chloramphenicol 1 μg/ml, 0.5-2.0 V/cm 10 MHz fields, 6 hours)?
The value was 26%.

What about the “growth of S. aureus relative to control” value (S. aureus [3]; chloramphenicol 1 μg/ml, 2.0-2.5 V/cm 10 MHz fields, 6 hours) of the same compound?
The value was 6%.

What about the “growth of S. aureus relative to control” value (S. aureus [3]; chloramphenicol 1 μg/ml, 3.5-4.5 V/cm 10 MHz fields, 6 hours) of the same compound?
The value was 2%.

What about the “growth of S. aureus relative to control” value (S. aureus [3]; chloramphenicol 4 μg/ml, 0 V/cm, 6 hours) of the same compound?
The value was 7%.

And the “growth of S. aureus relative to control” value (S. aureus [3]; chloramphenicol 4 μg/ml, 0.5-2.0 V/cm 10 MHz fields, 6 hours)?
Its value is 13%.

And the “growth of S. aureus relative to control” value (S. aureus [3]; chloramphenicol 4 μg/ml, 2.0-2.5 V/cm 10 MHz fields, 6 hours)?
Its value is 2%.

And the “growth of S. aureus relative to control” value (S. aureus [3]; chloramphenicol 4 μg/ml, 3.5-4.5 V/cm 10 MHz fields, 6 hours)?
The value was 0%.

What about the FIC index (S. aureus [3]; electric fields + chloramphenicol, based on OD measurements) of the same compound?
The FIC index was 0.625.

What about the “concentration sufficient to produce complete inhibition of the growth of S. aureus in combination with electric fields” value (S. aureus [3]; in the presence of 4 V/cm 10 MHz electric fields applied for 6 hours, field direction alternating every 300 ms) of the same compound?
The value was 1 µg/mL.
